Test: wn = mass fraction of the nth substance listed
Conditions: 295 K; for surface tension liquid-gas: Wilhelmi plate; for mass density / viscosity: 101.3 kPa, Liquid; for mass density: Buoyancy - hydrostatic balance; for viscosity: Concentric cylinders viscometry

N#C[S-].[K+] [potassium thiocyanate] + O
Conditions | mass density [kg/m3] | surface tension liquid-gas [mN/m] | viscosity [mPa·s]
w1 = 0.03 | 1013 | 67.25 | 0.834
w1 = 0.05 | 1022 | 61.98 | 0.845
w1 = 0.07 | 1031 | 58.59 | 0.825
w1 = 0.1 | 1047 | 57.2 | 0.843
w1 = 0.2 | 1100 | 57.79 | 0.881
w1 = 0.3 | 1157 | – | 0.916
w1 = 0.4 | 1218 | 55.45 | 1.101
w1 = 0.5 | 1283 | 56.47 | 1.321
w1 = 0.6 | 1353 | 62.93 | 1.979
w1 = 0.65 | 1392 | 73.26 | 2.588
w1 = 0.68 | 1414 | 74.62 | 3.125

Source: the NIST ThermoML archive (doi:10.1021/acs.jced.7b00904)
